Reference: patent US9695195B2, “5-HT3 receptor antagonists” (Takeda Pharmaceutical Company Limited, priority 2012, dated 2017)

Test system: subchronic PCP-induced impairment in cognition memory
Test: Rodent novel object recognition (NOR) assay in phencyclidine-induced cognitive deficits modeling schizophrenia
Format: in vivo, rat
Settings: PCP-treated rats
Description: The aim of this study was to investigate the ability of the compounds of the invention to improve subchronic PCP-induced impairment in cognition memory using the NOR task in the rat, a paradigm of relevance to cognition in schizophrenia. Adult male Sprague-Dawley rats (250-350 g; Harlan, USA) were used for the experiments. Animal were acclimated to the facility for 7 days prior to experimentation. Seven groups of 14 animals per group were used for the experiment. One group of animals received vehicle (0.9% saline twice daily) and the remaining six groups received PCP (2.5 mg/kg, s.c. twice daily) for 7 days, followed by 5-days drug free. On the test day, the animals were allowed to acclimate to the testing room for 30 min prior to initiation of experiments. Experiments were carried out in a white plexiglass chamber, designated as experimental arena. The arena was placed in a dark experimental room that was illuminated by a halogen lamp, providing a dim light to the arena.
Animals were placed in the arena for a 5 minute period to freely explore the test chamber in the absence of objects (habituation). Animals were then returned to their home cage immediately upon completion of habituation for a 120 min period. (1R,3R,5S)-8-Methyl-8-azabicyclo[3.2.1]octan-3-yl 1-(2,2,2-trifluoroethyl)-1H-indole-3-carboxylate (0.1, 1, 10 mg/kg s.c.), or vehicle (veh, saline) was administered 120 min prior to T1 and galantamine (5 mg/kg, i.p.) was administered 30 min prior to T1. Animals were returned to the arena which contained two identical objects (plastic balls) placed at one end of the arena (acquisition, T1), and allowed to explore for a 5 min period. The time spent exploring the two objects was recorded. Animals were once again returned to the home cage for a period of 120 min (ITI).
ITI was followed by the retention phase (T2) where one of the objects presented in the first trial was replaced by a novel object and animals were allowed to explore for an additional 5 min period. Again, the time spent exploring the two objects was recorded.
For the retention phase, the differences between the time spent exploring the familiar object and the novel object were examined. All sessions were recorded and scored blindly for the time exploring objects. Exploration is defined as touching the object or directing nose towards object at a distance less that 2 cm. A minimal exploration criterion was used such that only animals with exploration time of greater than 5 seconds per object were included.
Comparisons of all treatment groups were conducted using a one-way ANOVA followed by a Bonferroni's post hoc test for multiple comparisons.

| Compound | discrimination between familiar and novel objects (0.1 mg/kg s.c.) | discrimination between familiar and novel objects (1 mg/kg s.c.) | discrimination between familiar and novel objects (10 mg/kg s.c.) | discrimination between familiar and novel objects (galantamine 5 mg/kg i.p., 2 h ITI) |
| --- | --- | --- | --- | --- |
| CN1[C@@H]2CC[C@H]1C[C@@H](OC(=O)c1cn(CC(F)(F)F)c3ccccc13)C2 | did not demonstrate a statistically significant discrimination | demonstrated a statistically significant discrimination | demonstrated a statistically significant discrimination | – |
| COc1ccc2c3c1O[C@H]1C[C@@H](O)C=C[C@@]31CCN(C)C2 [Galantamine, galantamine, reference compound] | – | – | – | statistically significant discrimination |
